# According to patent publication US20220002663A1, “SELECTIVE SALMONELLA OR E. COLI CULTIVATION METHOD, COMPOSITIONS AND USES” (SOLUS SCIENTIFIC SOLUTIONS LTD, priority 2018, published 2022):
# Key:
# Assay type in all cases: cell-based
# competing microflora = assay: Suppression of competing microflora in cultures of sample types; settings: 5 mg/L; range of sample types, including dairy and probiotic foods
# Salmonella [1] = assay: Inclusivity: culture of pure Salmonella serovars in BPW with selective agent or supplement, ELISA detection (FIG. 4, FIG. 6); settings: 5 mg/L 4PYcq; 20 hour culture; same inoculums of pure Salmonella cultures
# Description: FIG. 4 illustrates inclusivity study data where multiple Salmonella serovars were artificially inoculated into either Buffered Peptone Water (BPW) on its own, or BPW enriched with either a selective cefsulodin, novobiocin, brilliant green lyophilised supplement run in the absence or presence of an oatmeal food matrix; or a selective cefsulodin, novobiocin, 4PYcq lyophilised supplement run in the absence of an oatmeal food matrix.
# FIG. 6 illustrates inclusivity study data where multiple Salmonella serovars were artificially inoculated into BPW enriched with a selective cefsulodin, novobiocin, 4PYcq lyophilised supplement at low levels.
# Salmonella [2] = assay: Recovery and detection of Salmonella from spices, herbs and flavourings, single step culture (FIGS. 9-13); settings: spices/flavourings from the allium family; FIG. 13
# Description: This was at fractional inoculation level (2-8 cfu). Accordingly a method with the ‘Spice neutraliser’ supplement is capable of detecting Salmonella from spice/herb/flavouring samples, even when the Salmonella is present at fractional levels.
# This was at a high inoculation level (40-92 cfu).
# The data provided in FIGS. 9A and 9B are derived from samples that were inoculated with a relatively high level of Salmonella (FIG. 9A—77-114cfu; FIG. 9B—38 cfu).
# FIG. 10 provides data derived from fractional inoculation levels (2-8 cfu). In this instance the cells are cultured in the 4PYcq/Cefsulodin/Novobiocin supplement at half the concentration of that used previously, i.e. at a working concentration of 2.5 mg/L 4PYcq, 4 mg/L Cefsulodin and 5 mg/L Novobiocin.
SMILES,suppression of competing microflora (competing microflora),identification of Salmonella by ELISA after culture (Salmonella [1]),recovery of Salmonella (Salmonella [2])
CC(C)(C)c1cc(/C=N/N=C(\N)c2ccncc2)c(O)c(C(C)(C)C)c1 [4PYcq],sufficient suppression of competing microflora,positive identification of the presence of Salmonella,–
"O=S([O-])[O-].[K+].[K+] [potassium salt component, potassium sulphite]",–,–,sufficient for recovery of Salmonella
